The values below come from patent publication US20110217337A1, “BIOACTIVE AGENT FOR BONE TISSUE ENGINEERING” (UNIVERSITY OF CONNECTICUT, priority 2010, published 2011).

One data set has as its system MC3T3-E1 cells. In words: Matrix mineralization, quantitative calcium assay. The class given is cell-based. As to conditions: 100 μM in mineralization medium vs mineralization medium alone; day 21. The method, then:
FIG. 6. 6-Bnz-cAMP promotes osteoblastic mineralization by day 21. After 20 days of culture of osteoblast-like MC3T3-E1 cells in mineralization medium with or without 6-Bnz-cAMP, quantitative calcium levels were determined. […] To facilitate the comparison of different experimental settings, the level of calcium measurement of the “Control” cells cultured in the regular growth medium was set to one relative unit.
MC3T3-E1 cells were grown in mineralization media (The minimal media described in Example 1 with, 1% of antibiotic (100 U/ml penicillin G and […] streptomycin), 3 mM β-glycerolphosphate, and 10 μg/ml ascorbic acid). 6-Bnz-cAMP was added to the culture medium to a final concentration of 100 μM for experiments; mineralization media only was used for positive controls. For the qualitative determination of calcified matrix mineralization, at day 21, media were removed and cells were rinsed with calcium-free PBS for 3 times. The precipitated calcium of mineralized matrix was dissolved overnight in 0.6N hydrochloric acid at 4° C. The extracted calcium was then measured with a calcium assay kit (Calcium Liquicolor, Stanbio Laboratory, Boerne, Tex.) according to the manufacturer's instructions. The absorbance values were normalized to cellular DNA.

The next data set concerns phophodiesterase. As to conditions: cited from earlier work.

The structures appear in SMILES notation.

Consider `O=C(Nc1ncnc2c1ncn2C1O[C@@H]2COP(=O)([O-])O[C@H]2[C@H]1O)c1ccccc1.[Na+]` (some centres unmarked) [6-Bnz-cAMP, N^6-Benzoyladenosine-3′,5′-cyclic monophosphate], for which, in the data set with MC3T3-E1 cells, the calcium deposition result is reported as “further enhanced calcium deposition”. Further, in the data set with phophodiesterase, the hydrolysis by phophodiesterase entry is given as “resistant to hydrolysis”.
